Key:
AD38 cells = experiment: Viability of AD38 cells (Promega CellTiter-Glo); type: cell-based; details: 10 μM compound, 6 days, CellTiter-Glo luminescence normalized to DMSO control (100%)
Method in brief: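 AD38 cells were seeded at 50,000/well on collagen-coated plates and treated with compound added as a 10× solution in 10% DMSO for 6 days at 37° C. Viability was measured by CellTiter-Glo luminescence in tetracycline-free medium with 2% FBS and 1% DMSO, and expressed as percent of DMSO control.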

[1] = tested on: HBV viral load in AD38 cells; experiment: Viral load production in AD38 cells, quantitative PCR of the core sequence in supernatant; type: cell-based; details: Hepatitis B virus, 144 h, 10 μM compound, 6 days at 37° C., supernatant qPCR, relative to DMSO control; read-out: AD38 Viral Load (%) (VL with cmpd/VL in DMSO control) at 10 μM

## Cc1c(C(=O)NCc2cnc(C(F)(F)F)s2)ccc2c1NC(=O)c1ccccc1S2(=O)=O [compound 1767]
AD38 cells
  AD38 Viability Normalized Result (cmpd/DMSO %) at 10 μM: 94%
[1]
  activity at 10 µM: 0.5%

## Cc1c(C(=O)NCc2cnc(-c3ccc(O)cc3)s2)ccc2c1NC(=O)c1ccccc1S2(=O)=O [compound 1768]
AD38 cells
  AD38 Viability Normalized Result (cmpd/DMSO %) at 10 μM: 94%
[1]
  activity at 10 µM: 0.4%

## Cc1nc(C)c(CNC(=O)c2ccc3c(c2)NC(=O)c2ccccc2O3)s1 [compound 1769]
AD38 cells
  AD38 Viability Normalized Result (cmpd/DMSO %) at 10 μM: 101%
[1]
  activity at 10 µM: 43.3%

## NC(=O)c1ccc(-c2ncc(CNC(=O)c3ccc4c(c3)NC(=O)c3ccccc3O4)s2)cc1 [compound 1770, N-((2-(4-carbamoylphenyl)thiazol-5-yl)methyl)-11-oxo-10, 11-dihydrodibenzo [b, f] [1, 4] oxazepine-8-carboxamide]
AD38 cells
  AD38 Viability Normalized Result (cmpd/DMSO %) at 10 μM: 77%
[1]
  activity at 10 µM: 32.5%

## O=C(NCc1cnc(C(F)(F)F)s1)c1ccc2c(c1)NC(=O)c1ccccc1[S+]2[O-] (centres unmarked) [compound 1772]
AD38 cells
  AD38 Viability Normalized Result (cmpd/DMSO %) at 10 μM: 109%
[1]
  activity at 10 µM: 7.1%

## Cc1cc(-c2ncc(CNC(=O)c3ccc4c(c3)NC(=O)c3ccccc3S4(=O)=O)s2)ccc1O [compound 1804, N-((2-(4-hydroxy-3-methylphenyl)thiazol-5-yl)methyl)-11-oxo-10, 11-dihydrodibenzo [b, f] [1, 4] thiazepine-8-carboxamide 5,5-dioxide]
AD38 cells
  AD38 Viability Normalized Result (cmpd/DMSO %) at 10 μM: 103%
[1]
  activity at 10 µM: 0.5%

## O=C(NCc1cnc(-c2ccc3[nH]ncc3c2)s1)c1ccc2c(c1)NC(=O)c1ccccc1S2(=O)=O [compound 1805]
AD38 cells
  AD38 Viability Normalized Result (cmpd/DMSO %) at 10 μM: 97%
[1]
  activity at 10 µM: 0.6%

## Cc1cc(-c2ncc(CNC(=O)c3ccc4c(c3)NC(=O)c3ccccc3S4(=O)=O)s2)cc(C)c1O [compound 1806, N-((2-(4-hydroxy-3,5-dimethylphenyl)thiazol-5-yl)methyl)-11-oxo-10, 11-dihydrodibenzo [b, f] [1, 4] thiazepine-8-carboxamide 5,5-dioxide]
AD38 cells
  AD38 Viability Normalized Result (cmpd/DMSO %) at 10 μM: 105%
[1]
  activity at 10 µM: 0.8%

## N#Cc1ccc(-c2ncc(CNC(=O)c3ccc4c(c3)NC(=O)c3ccccc3S4(=O)=O)s2)c(F)c1 [compound 1814]
AD38 cells
  AD38 Viability Normalized Result (cmpd/DMSO %) at 10 μM: 92%
[1]
  activity at 10 µM: 0.9%

## N#Cc1ccc(-c2ncc(CNC(=O)c3ccc4c(c3)NC(=O)c3ccccc3S4(=O)=O)s2)cc1F [compound 1815]
AD38 cells
  AD38 Viability Normalized Result (cmpd/DMSO %) at 10 μM: 88%
[1]
  activity at 10 µM: 0.2%

## N#Cc1ccc(-c2ncc(CNC(=O)c3ccc4c(c3)NC(=O)c3ccccc3S4(=O)=O)s2)c(Cl)c1 [compound 1816]
AD38 cells
  AD38 Viability Normalized Result (cmpd/DMSO %) at 10 μM: 82%
[1]
  activity at 10 µM: 0.2%

## N#Cc1ccc(-c2ncc(CNC(=O)c3ccc4c(c3)NC(=O)c3ccccc3S4(=O)=O)s2)cc1Cl [compound 1817]
AD38 cells
  AD38 Viability Normalized Result (cmpd/DMSO %) at 10 μM: 97%
[1]
  activity at 10 µM: 0.3%

## O=C(NCc1cnc(-c2ccc3ncccc3c2)s1)c1ccc2c(c1)NC(=O)c1ccccc1S2(=O)=O [compound 1819]
AD38 cells
  AD38 Viability Normalized Result (cmpd/DMSO %) at 10 μM: 118%
[1]
  activity at 10 µM: 0.5%

## O=C(NCc1cnc(-c2ccc3cnccc3c2)s1)c1ccc2c(c1)NC(=O)c1ccccc1S2(=O)=O [compound 1820]
AD38 cells
  AD38 Viability Normalized Result (cmpd/DMSO %) at 10 μM: 105%
[1]
  activity at 10 µM: 3.2%

## O=C1Cc2cc(-c3ncc(CNC(=O)c4ccc5c(c4)NC(=O)c4ccccc4S5(=O)=O)s3)ccc2N1 [compound 1821]
AD38 cells
  AD38 Viability Normalized Result (cmpd/DMSO %) at 10 μM: 102%
[1]
  activity at 10 µM: 0.5%

## COc1cccc(Cc2ncc(CNC(=O)c3ccc4c(c3)NC(=O)c3ccccc3S4(=O)=O)s2)c1 [compound 1822, N-((2-(3-methoxybenzyl)thiazol-5-yl)methyl)-11-oxo-10, 11-dihydrodibenzo [b, f] [1, 4] thiazepine-8-carboxamide 5,5-dioxide]
AD38 cells
  AD38 Viability Normalized Result (cmpd/DMSO %) at 10 μM: 89%
[1]
  activity at 10 µM: 1.5%

## O=C(NCc1cnc(Cc2ccc(O)cc2)s1)c1ccc2c(c1)NC(=O)c1ccccc1S2(=O)=O [compound 1823, N-((2-(4-hydroxybenzyl)thiazol-5-yl)methyl)-11-oxo-10, 11-dihydrodibenzo [b, f] [1, 4] thiazepine-8-carboxamide 5,5-dioxide]
AD38 cells
  AD38 Viability Normalized Result (cmpd/DMSO %) at 10 μM: 96%
[1]
  activity at 10 µM: 5.2%

## N#Cc1ccc(-c2ncc(CNC(=O)c3ccc4c(c3)NC(=O)c3ccccc3O4)s2)c(F)c1 [compound 1826]
AD38 cells
  AD38 Viability Normalized Result (cmpd/DMSO %) at 10 μM: 91%
[1]
  activity at 10 µM: 11.8%

## O=C(NCc1cnc(-c2ccc3ncccc3c2)s1)c1ccc2c(c1)NC(=O)c1ccccc1O2 [compound 1831]
AD38 cells
  AD38 Viability Normalized Result (cmpd/DMSO %) at 10 μM: 112%
[1]
  activity at 10 µM: 3.8%

## O=C(NCc1cnc(-c2ccc3cnccc3c2)s1)c1ccc2c(c1)NC(=O)c1ccccc1O2 [compound 1832]
AD38 cells
  AD38 Viability Normalized Result (cmpd/DMSO %) at 10 μM: 98%
[1]
  activity at 10 µM: 14.1%

## O=C1Cc2cc(-c3ncc(CNC(=O)c4ccc5c(c4)NC(=O)c4ccccc4O5)s3)ccc2N1 [compound 1833]
AD38 cells
  AD38 Viability Normalized Result (cmpd/DMSO %) at 10 μM: 102%
[1]
  activity at 10 µM: 67.4%

## O=C(NCc1cnc(Cc2ccc(O)cc2)s1)c1ccc2c(c1)NC(=O)c1ccccc1O2 [compound 1835, N-((2-(4-hydroxybenzyl)thiazol-5-yl)methyl)-11-oxo-10, 11-dihydrodibenzo [b, f] [1, 4] oxazepine-8-carboxamide]
AD38 cells
  AD38 Viability Normalized Result (cmpd/DMSO %) at 10 μM: 94%
[1]
  activity at 10 µM: 12.3%

## O=C(NCc1cnc(-c2ccccc2CO)s1)c1ccc2c(c1)NC(=O)c1ccccc1S2(=O)=O [compound 1838]
AD38 cells
  AD38 Viability Normalized Result (cmpd/DMSO %) at 10 μM: 113%
[1]
  activity at 10 µM: 1.4%

## O=C(NCc1cnc(-c2ccccc2CCO)s1)c1ccc2c(c1)NC(=O)c1ccccc1S2(=O)=O [compound 1839, N-((2-(2-(2-hydroxyethyl)phenyl)thiazol-5-yl)methyl)-11-oxo-10, 11-dihydrodibenzo [b, f] [1, 4] thiazepine-8-carboxamide 5,5-dioxide]
AD38 cells
  AD38 Viability Normalized Result (cmpd/DMSO %) at 10 μM: 96%
[1]
  activity at 10 µM: 6.6%

## CC(C)(O)Cc1ccccc1-c1ncc(CNC(=O)c2ccc3c(c2)NC(=O)c2ccccc2S3(=O)=O)s1 [compound 1840]
AD38 cells
  AD38 Viability Normalized Result (cmpd/DMSO %) at 10 μM: 107%
[1]
  activity at 10 µM: 3.2%

## Cl.NCc1ccccc1-c1ncc(CNC(=O)c2ccc3c(c2)NC(=O)c2ccccc2S3(=O)=O)s1 [compound 1841, N-((2-(2-(aminomethyl)phenyl)thiazol-5-yl)methyl)-11-oxo-10, 11-dihydrodibenzo [b, f] [1, 4] thiazepine-8-carboxamide 5,5-dioxide hydrochloride]
AD38 cells
  AD38 Viability Normalized Result (cmpd/DMSO %) at 10 μM: 104%
[1]
  activity at 10 µM: 9.1%

## Cl.NCCc1ccccc1-c1ncc(CNC(=O)c2ccc3c(c2)NC(=O)c2ccccc2S3(=O)=O)s1 [compound 1842, N-((2-(2-(2-aminoethyl)phenyl)thiazol-5-yl)methyl)-11-oxo-10, 11-dihydrodibenzo [b, f] [1, 4] thiazepine-8-carboxamide 5,5-dioxide hydrochloride]
AD38 cells
  AD38 Viability Normalized Result (cmpd/DMSO %) at 10 μM: 109%
[1]
  activity at 10 µM: 46.5%

## CS(=O)(=O)c1ccc(-c2ncc(CNC(=O)c3ccc4c(c3)NC(=O)c3ccccc3S4(=O)=O)s2)cc1 [compound 1855]
AD38 cells
  AD38 Viability Normalized Result (cmpd/DMSO %) at 10 μM: 102%
[1]
  activity at 10 µM: 2.5%

## NS(=O)(=O)c1ccc(-c2ncc(CNC(=O)c3ccc4c(c3)NC(=O)c3ccccc3S4(=O)=O)s2)cc1 [compound 1856]
AD38 cells
  AD38 Viability Normalized Result (cmpd/DMSO %) at 10 μM: 96%
[1]
  activity at 10 µM: 1.3%

## CS(=O)(=O)Nc1ccc(-c2ncc(CNC(=O)c3ccc4c(c3)NC(=O)c3ccccc3S4(=O)=O)s2)cc1 [compound 1857]
AD38 cells
  AD38 Viability Normalized Result (cmpd/DMSO %) at 10 μM: 107%
[1]
  activity at 10 µM: 1.5%

## O=C(NCc1cnc(-c2ccc(N3CCCC3=O)cc2)s1)c1ccc2c(c1)NC(=O)c1ccccc1S2(=O)=O [compound 1858]
AD38 cells
  AD38 Viability Normalized Result (cmpd/DMSO %) at 10 μM: 103%
[1]
  activity at 10 µM: 0.7%

## O=C(NCc1cnc(N2CCC(O)CC2)s1)c1ccc2c(c1)NC(=O)c1ccccc1S2(=O)=O [compound 1859]
AD38 cells
  AD38 Viability Normalized Result (cmpd/DMSO %) at 10 μM: 89%
[1]
  activity at 10 µM: 2.7%

## O=C(NCc1cnc(N2CCS(=O)(=O)CC2)s1)c1ccc2c(c1)NC(=O)c1ccccc1S2(=O)=O [compound 1860]
AD38 cells
  AD38 Viability Normalized Result (cmpd/DMSO %) at 10 μM: 98%
[1]
  activity at 10 µM: 7.5%

## CS(=O)(=O)c1ccc(-c2ncc(CNC(=O)c3ccc4c(c3)NC(=O)c3ccccc3O4)s2)cc1 [compound 1861]
AD38 cells
  AD38 Viability Normalized Result (cmpd/DMSO %) at 10 μM: 94%
[1]
  activity at 10 µM: 5.9%

## NS(=O)(=O)c1ccc(-c2ncc(CNC(=O)c3ccc4c(c3)NC(=O)c3ccccc3O4)s2)cc1 [compound 1862]
AD38 cells
  AD38 Viability Normalized Result (cmpd/DMSO %) at 10 μM: 107%
[1]
  activity at 10 µM: 19.9%

## CS(=O)(=O)Nc1ccc(-c2ncc(CNC(=O)c3ccc4c(c3)NC(=O)c3ccccc3O4)s2)cc1 [compound 1863]
AD38 cells
  AD38 Viability Normalized Result (cmpd/DMSO %) at 10 μM: 106%
[1]
  activity at 10 µM: 9.4%

## O=C(NCc1cnc(-c2ccc(N3CCCC3=O)cc2)s1)c1ccc2c(c1)NC(=O)c1ccccc1O2 [compound 1864]
AD38 cells
  AD38 Viability Normalized Result (cmpd/DMSO %) at 10 μM: 93%
[1]
  activity at 10 µM: 3%

## O=C(NCc1cnc(N2CCC(O)CC2)s1)c1ccc2c(c1)NC(=O)c1ccccc1O2 [compound 1865]
AD38 cells
  AD38 Viability Normalized Result (cmpd/DMSO %) at 10 μM: 94%
[1]
  activity at 10 µM: 1%

## O=C(NCc1cnc(N2CCS(=O)(=O)CC2)s1)c1ccc2c(c1)NC(=O)c1ccccc1O2 [compound 1866]
AD38 cells
  AD38 Viability Normalized Result (cmpd/DMSO %) at 10 μM: 98%
[1]
  activity at 10 µM: 2.9%

## Cc1c(C(=O)NCc2cnc(-c3ccc(C#N)cc3)s2)ccc2c1NC(=O)c1ccccc1S2(=O)=O [compound 1877]
AD38 cells
  AD38 Viability Normalized Result (cmpd/DMSO %) at 10 μM: 96%
[1]
  activity at 10 µM: 0.2%

— patent publication US11814376B2, “Hepatitis b core protein modulators” (Assembly Biosciences, Inc., priority 2015, dated 2023)
